The record followed here is ChEMBL document CHEMBL1146478, “Saponins from the bark of Nephelium maingayi” (J Nat Prod, 2004).

The nature of series [1]: Cytotoxicity against human HUVEC. Format: cell-based. The conditions noted are these: HUVEC cells, read-out: ED50 (the source's name).
The test system of a further series is MCF7. Nature of the series: Cytotoxicity against human MCF7 cells. Format: functional. Particulars: read-out: ED50 (the source's name).
Another series relates to Lu1. Nature of the series: Cytotoxicity against human Lu1 cells. It counts as functional. Particulars: read-out: ED50 (the source's name).
The test system of the next series is LNCaP. The experiment in a line: Cytotoxicity against human LNCAP cells. It counts as functional. The conditions noted are these: read-out: ED50 (the source's name).

Each structure is given as a SMILES string. Converted amounts (≈) assume the structure as drawn.

With `CC1(C)CC[C@]2(C)[C@@H](O)C[C@]3(C)C(=CC[C@@H]4[C@@]5(C)CC[C@H](O[C@@H]6O[C@H](CO)[C@@H](O)[C@H](O[C@@H]7OC[C@H](O)[C@H](O)[C@H]7O)[C@H]6O[C@@H]6O[C@H](CO)[C@@H](O)[C@H](O)[C@H]6O)C(C)(C)[C@@H]5CC[C@]43C)[C@@H]2C1` [NEPHELIOSIDE VI], the CC50 in series [1] is greater than 20 µg/mL. Also, the EC50 with MCF7, with Lu1 and with LNCaP was greater than 20 µg/mL each time.

Consider `CC1(C)CC[C@]2(CO)CC[C@]3(C)C(=CC[C@@H]4[C@@]5(C)CC[C@H](O[C@@H]6OC[C@@H](O)[C@H](O[C@@H]7OC[C@H](O)[C@H](O)[C@H]7O)[C@H]6O[C@@H]6O[C@H](CO)[C@@H](O)[C@H](O)[C@H]6O)C(C)(C)[C@@H]5CC[C@]43C)[C@@H]2C1` [NEPHELIOSIDE I], for which the CC50 in series [1] is greater than 20 µg/mL. For the same molecule, the EC50 is greater than 20 µg/mL in the series with MCF7, 19.5 µg/mL (≈ 22.4 µM) in the series with Lu1 and greater than 20 µg/mL in the series on LNCaP.

For the molecule `CC1(C)CC[C@]2(CO)CC[C@]3(C)C(=CC[C@@H]4[C@@]5(C)CC[C@H](O[C@@H]6O[C@H](CO)[C@@H](O)[C@H](O[C@@H]7OC[C@H](O)[C@H](O)[C@H]7O)[C@H]6O[C@@H]6O[C@H](CO)[C@@H](O)[C@H](O)[C@H]6O)C(C)(C)[C@@H]5CC[C@]43C)[C@@H]2C1` [NEPHELIOSIDE II], the CC50 in series [1] was greater than 20 µg/mL. In addition, the EC50 in the series with MCF7, in the series on Lu1 and in the series on LNCaP was greater than 20 µg/mL each time.

With `CO[C@@H]1C[C@H]2C(C)(C)[C@@H](O[C@@H]3O[C@H](CO)[C@@H](O)[C@H](O[C@@H]4OC[C@H](O)[C@H](O)[C@H]4O)[C@H]3O[C@@H]3O[C@H](CO)[C@@H](O)[C@H](O)[C@H]3O)CC[C@]2(C)[C@H]2CC=C3[C@@H]4CC(C)(C)CC[C@]4(CO)CC[C@@]3(C)[C@@]21C` [NEPHELIOSIDE IV], the CC50 in series [1] was greater than 20 µg/mL. Further, the EC50 in the series with MCF7, with Lu1 and in the series with LNCaP was greater than 20 µg/mL throughout.

Turning to `CC1(C)CC[C@]2(C)[C@@H](O)C[C@]3(C)C(=CC[C@@H]4[C@@]5(C)CC[C@H](O[C@@H]6OC[C@@H](O)[C@H](O[C@@H]7OC[C@H](O)[C@H](O)[C@H]7O)[C@H]6O[C@@H]6O[C@H](CO)[C@@H](O)[C@H](O)[C@H]6O)C(C)(C)[C@@H]5CC[C@]43C)[C@@H]2C1` [NEPHELIOSIDE V], the CC50 in series [1] is 17.7 µg/mL (≈ 20.4 µM). The EC50 in the series on MCF7 was 13.9 µg/mL (≈ 16 µM); in the series with Lu1, 13.6 µg/mL (≈ 15.6 µM); with LNCaP, 11.7 µg/mL (≈ 13.5 µM).

With `CC(=O)OC[C@H]1O[C@@H](O[C@@H]2[C@@H](O)[C@H](O[C@H]3CC[C@]4(C)[C@H]5CC=C6[C@@H]7CC(C)(C)CC[C@]7(CO)CC[C@@]6(C)[C@]5(C)CC[C@H]4C3(C)C)OC[C@H]2O)[C@H](O)[C@@H](O)[C@@H]1O`, the CC50 in series [1] was greater than 20 µg/mL. The EC50 with MCF7, with Lu1 and with LNCaP was greater than 20 µg/mL throughout.
